Assay results: patent US20250345317A1, “New pharmaceutical compounds, methods and uses thereof” (BBIT-THERAPEUTICS, LDA., priority 2020, published 2025)

Assays:
MCF-7 = experiment: Growth inhibition, SRB assay, MCF-7; type: cell-based, human; conditions: Homo sapiens, MCF7, 48 h
Description: (§1) Table 2 refers to the growth inhibitory effect of COMP, olaparib and cisplatin (CDDP) in a panel of human immortalized breast (T47D, MCF-7, MDA-MB-231, MDA-MB-468, SK-BR-3 and HCC1937), ovarian and endocervical (OCVAR, SKOV-3, […],IGROV-1 and HeLa), pancreatic (PANC-1 and MIAPACA), neuroblastoma (SHSY-5Y), lung (NCI-H460), prostate (VCaP) melanoma (A375 and SK-MEL-5) and glioblastoma (SF-208) cancer cells, immortalized normal MCF10a and HFF1 human cells, and patient-derived ovarian (PD-OVCA #1, #9, #41, #49 and #62) cancer cells. […] Data are mean±SEM (n=5).
(§2) In an embodiment, IC50 values were determined by Sulforhodamine B (SRB) or MTS [3-(4,5-dimethylthiazol-2-yl)-5-(3-carboxymethoxyphenyl)-2-(4-sulfophenyl)-2H-tetrazolium] assay in immortalized and PD-OVCA cells, respectively. Cancer cells were plated in 96-well plates and incubated for 24 hours. Cells were then exposed to serial dilutions of compounds for 48 hours. The solvent DMSO corresponding to the maximum concentration used in these assays (0.025%) was included as control. Results are the mean±S.E.M. of 3-5 independent experiments.

OVCAR-3 = experiment: Growth inhibition, SRB assay, OVCAR-3; type: cell-based, human; conditions: Homo sapiens, OVCAR-3, 48 h
Description: as §1, §2

HeLa = experiment: Growth inhibition, SRB assay, HeLa; type: cell-based; conditions: Homo sapiens, wild-type BRCA1/2, 48 hours
Description: as §1, §2

PANC-1 = experiment: Growth inhibition, SRB assay, PANC-1; type: cell-based; conditions: Homo sapiens, PANC-1, wild-type BRCA1/2, 48 hours
Description: as §1, §2

NCI-H460 = experiment: Growth inhibition, SRB assay, NCI-H460; type: cell-based; conditions: Homo sapiens, NCI-H460, wild-type BRCA1/2, 48 hours
Description: as §1, §2

Vcap = experiment: Growth inhibition, SRB assay, Vcap; type: cell-based; conditions: Homo sapiens, wild-type BRCA1/2, 48 hours
Description: as §1, §2

SK-BR-3 = experiment: Growth inhibition, SRB assay, SK-BR-3; type: cell-based, human; conditions: Homo sapiens, SK-BR-3, 48 h
Description: as §1, §2

[1] = tested on: PD-OVCA#1 (Lack of exon 17 in BRCA1); experiment: Growth inhibition, MTS assay, PD-OVCA#1; type: cell-based, human; conditions: Homo sapiens, PD-OVCA#1, pathogenic mutant BRCA1/2, 48 hours
Description: as §1, §2

PD-OVCA#62 = experiment: Growth inhibition, MTS assay, PD-OVCA#62; type: cell-based, human; conditions: Homo sapiens, PD-OVCA#62, wild-type BRCA1/2, 48 hours
Description: as §1, §2

[2] = tested on: patient-derived ovarian cancer cells; experiment: Growth inhibition, patient-derived ovarian cancer cells; type: cell-based; conditions: Homo sapiens; range over PD-OVCA cells; MTS, 48 hours
Protocol: In an embodiment, the activity of COMP compound was tested in an array of human normal and cancer cell lines (Table 2, FIG. 2).
as §1, §2

HCC1937 mammospheres = experiment: 3D-mammosphere model; type: cell-based, human
Protocol: FIG. 5 illustrates the effect of COMP on (A-B) HCC1937 mammosphere formation after 72 hours of treatment with COMP; treatment was performed at seeding time of HCC1937 cells or at (C-D) three-day-old HCC1937 mammospheres for up to 11 days of treatment. FIG. 5A and FIG. 5C are representative images (scale bar=50 μm, 100× magnification).

[3] = tested on: key proteins involved in homologous recombination, proliferation and chemoresistance; experiment: Protein expression by western blot; type: cell-based, human; conditions: 12 μM, 48 hours
Protocol: FIG. 6 illustrates the effect of 12 μM COMP on the (A-B) expression of key proteins involved in homologous recombination, proliferation and chemoresistance in triple-negative breast cancer and ovarian cancer cells after 48 hours of treatment.
(§3) In an embodiment, the COMP compound modulated the expression of key proteins involved in homologous DNA repair, proliferation, chemoresistance, induced cell cycle arrest, apoptosis and ROS generation, in triple-negative breast cancer and ovarian cancer cells.

[4] = tested on: triple-negative breast cancer and ovarian cancer cells; experiment: Cell cycle progression by flow cytometry (propidium iodide); type: cell-based, human; conditions: MDA-MB-231 cells, 6 and 12 μM, 48 hours
Protocol: (§4) Cell cycle phases were analysed by flow cytometry using propidium iodide (PI) and quantified using the FlowJo software. Apoptosis and ROS were analysed by flow cytometry using FITC-Annexin V/PI and 2′,7′-dichlorodihydrofluorescein diacetate (H2DCFDA) respectively.
as §3

[5] = tested on: triple-negative breast cancer and ovarian cancer cells; experiment: ROS generation (H2DCFDA flow cytometry); type: cell-based, human; conditions: 6 and 12 μM, 48 hours
Protocol: as §4

[6] = tested on: MDA-MB-231, HCC1937 and IGROV-1 cells; experiment: DNA damage by comet assay; type: cell-based, human; conditions: 6 μM and 12 μM, 48 hours
Protocol: FIG. 8 illustrates the effect of 6 and 12 μM COMP on triple-negative breast cancer and ovarian cancer cells' DNA damage after 48 hours of treatment, measured by comet assay. FIG. 8A are representative images (scale bar=20 μm; 200× magnification).
In an embodiment, COMP decreased homologous recombination DNA repair and disrupted the BRCA1-BARD1 interaction.

[7] = tested on: phosphorylated (Ser139) histone H2AX (γH2AX); experiment: γH2AX expression and foci formation; type: cell-based, human; conditions: 12 μM, 48 hours; MDA-MB-231, HCC1937 and IGROV-1 cells
Protocol: (§5) FIG. 10 illustrates the effect of 12 μM COMP on (A) γH2AX expression levels and on (FIG. 10B) γH2AX and RAD51 foci formation, and BRCA1 foci formation and cellular localization after 48 hours of treatment. […] FIG. 10B are representative images generated using Fiji software (scale bar=100 μm; 400 × magnification).
In an embodiment, 12 μM of COMP increased the amount of phosphorylated (Ser139) histone H2AX (γH2AX) (FIG. 10A) and the number of γH2AX-positive foci formed in MDA-MB-231, HCC1937 and IGROV-1 cells (FIG. 10B and FIG. 10C).

RAD51 = RAD51 foci formation by immunofluorescence; type: cell-based, human; conditions: 12 μM, 48 hours
Protocol: as §5

## CC[C@H]1CN(C)C2Cc3c([nH]c4ccccc34)/C(=N/Nc3ccc(Br)cn3)C[C@@H]1[C@@H]2C(=O)OC [COMP, methyl (5R,6S,14S,E)-8-(2-(5-bromopyridin-2-yl) hydrazineylidene)-5-ethyl-3-methyl-2,3,4,5,6,7,8,9-octahydro-1H-2,6-methanoazecino [5,4-b]indole-14-carboxylate]
MCF-7; MCF-7, BRCA1 wild-type, 48 hours (second Table 2)
  IC50: 12 µM
MCF-7; MCF-7, wild-type BRCA1/2, 48 hours
  IC50: 12 ± 1.5 µM
OVCAR-3; OVCAR-3, BRCA1 wild-type, 48 hours (second Table 2)
  IC50: 13.9 µM
OVCAR-3; OVCAR-3, wild-type BRCA1/2, 48 hours
  IC50: 13.9 ± 1.7 µM
HeLa
  IC50: 5.8 ± 0.8 µM
PANC-1
  IC50: 4.4 ± 0.9 µM
NCI-H460
  IC50: 15.5 ± 1.5 µM
Vcap
  IC50: 11.7 ± 3.4 µM
SK-BR-3; SK-BR-3, BRCA1 loss of heterozigoty, 48 hours
  IC50: 5.7 ± 1.4 µM
SK-BR-3; SK-BR-3, BRCA1 loss of heterozygosity, 48 hours (second Table 2)
  IC50: 5.7 µM
[1]
  IC50: 2.7 ± 0.6 µM
PD-OVCA#62
  IC50: 14.2 ± 2.9 µM
[2]
  IC50: 2.68 to 15.1 µM
HCC1937 mammospheres; 6 μM and 12 μM, up to 11 days
  mammosphere growth in three-day old spheroids: markedly reduced
HCC1937 mammospheres; 6 μM, added upon seeding of HCC1937 cells, 72 hours
  mammosphere (spheroids) formation: complete abolishment of spheroids formation
HCC1937 mammospheres; 12 μM, up to 11 days
  mammosphere integrity in three-day old spheroids: triggering mammosphere disintegration
[3]
  PUMA and cleaved PARP protein expression levels: increase
  expression levels of DNA damage repair proteins (BRCA1, BRCA2, RAD51, RAD52, FANCD2, pATM, pATR) and resistance-related proteins (CDK2, survivin, BARD1): significantly decreased
  expression of p21: increased expression of p21
[4]
  cell cycle arrest phase: cell cycle arrest at G0/G1-
[5]
  ROS production: increases ROS production
[6]
  percentage of comet-positive cells (tail DNA, tail moment): significantly increased
[7]
  amount of γH2AX and number of γH2AX-positive foci: increased
RAD51
  RAD51-foci formation: pronounced reduction
